Test results as given in ChEMBL document CHEMBL5465560, “Selectivity Literature for EUbOPEN Chemogenomic Library” (2024).
One block for each compound: values may come before it.

Experiments:
[1] = molecular target: T1, Histone-lysine N-methyltransferase EHMT1 (Homo sapiens) (UniProt Q9H9B1); experiment: Selectivity interaction (Methyltransferase screen (radiometric assays, panel of 8 PRMTs, 21 protein lysine methyltransferases, 3 DNA methyltransferases, and one RNA methyltransferase)) EUB0000272b EHMT1
T1 sequence (whole entry): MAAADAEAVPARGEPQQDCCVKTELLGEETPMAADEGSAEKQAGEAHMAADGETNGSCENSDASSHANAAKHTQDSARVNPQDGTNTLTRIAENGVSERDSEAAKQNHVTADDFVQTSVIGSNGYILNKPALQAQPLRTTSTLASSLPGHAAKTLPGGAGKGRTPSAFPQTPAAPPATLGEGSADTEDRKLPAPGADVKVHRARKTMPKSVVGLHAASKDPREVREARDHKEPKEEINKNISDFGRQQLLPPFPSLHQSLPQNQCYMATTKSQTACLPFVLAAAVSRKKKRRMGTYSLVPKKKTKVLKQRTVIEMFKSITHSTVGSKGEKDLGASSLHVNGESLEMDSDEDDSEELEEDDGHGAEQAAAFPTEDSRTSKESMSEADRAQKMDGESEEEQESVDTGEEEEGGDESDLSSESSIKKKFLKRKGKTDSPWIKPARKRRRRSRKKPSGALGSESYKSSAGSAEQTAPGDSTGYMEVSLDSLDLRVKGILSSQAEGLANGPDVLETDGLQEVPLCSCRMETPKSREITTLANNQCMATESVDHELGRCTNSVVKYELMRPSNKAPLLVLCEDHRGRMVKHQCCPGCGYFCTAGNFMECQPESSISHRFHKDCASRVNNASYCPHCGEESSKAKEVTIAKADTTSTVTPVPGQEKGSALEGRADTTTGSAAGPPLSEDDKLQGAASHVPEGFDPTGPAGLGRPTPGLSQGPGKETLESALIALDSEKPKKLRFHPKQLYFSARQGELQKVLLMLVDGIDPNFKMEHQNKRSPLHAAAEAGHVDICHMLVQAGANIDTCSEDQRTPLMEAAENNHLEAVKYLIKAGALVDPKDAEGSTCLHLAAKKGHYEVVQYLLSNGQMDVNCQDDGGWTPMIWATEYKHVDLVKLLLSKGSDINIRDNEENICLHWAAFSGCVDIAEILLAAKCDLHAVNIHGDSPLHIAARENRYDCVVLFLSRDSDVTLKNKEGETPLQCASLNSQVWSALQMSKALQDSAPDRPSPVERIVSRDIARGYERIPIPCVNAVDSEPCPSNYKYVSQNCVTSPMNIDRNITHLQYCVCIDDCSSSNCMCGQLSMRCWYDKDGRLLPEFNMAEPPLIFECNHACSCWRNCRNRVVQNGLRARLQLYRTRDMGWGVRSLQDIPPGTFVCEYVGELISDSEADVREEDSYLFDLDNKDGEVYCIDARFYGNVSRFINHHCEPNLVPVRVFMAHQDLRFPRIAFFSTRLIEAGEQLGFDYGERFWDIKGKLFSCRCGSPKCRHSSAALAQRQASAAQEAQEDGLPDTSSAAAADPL

[2] = molecular target: Serine/threonine-protein kinase Chk2 (Homo sapiens) (UniProt O96017); experiment: Selectivity interaction (ActivX KiNativ screen (kinase selectivity in THP-1 cell lysates)) EUB0000639a CHEK2; format: subcellular; conditions: lysate, at 5 µM
[3] = molecular target: Histone-lysine N-methyltransferase, H3 lysine-36 specific (Homo sapiens) (UniProt Q96L73); experiment: Selectivity interaction (Methyltransferase screen (radiometric assays, panel of 8 PRMTs, 21 protein lysine methyltransferases, 3 DNA methyltransferases, and one RNA methyltransferase)) EUB0000271b NSD1; conditions: at 10 µM
[4] = test system: Phosphatidylinositol 4,5-bisphosphate 3-kinase catalytic subunit alpha isoform (Homo sapiens), P42336 [E545A]; conditions: at 10 µM
[5] = molecular target: T2, Serine/threonine-protein kinase Nek9 (Homo sapiens) (UniProt Q8TD19); experiment: Selectivity interaction (KinomeScan (DiscoverX)) EUB0000595a NEK9; conditions: at 10 µM
T2 sequence (whole entry): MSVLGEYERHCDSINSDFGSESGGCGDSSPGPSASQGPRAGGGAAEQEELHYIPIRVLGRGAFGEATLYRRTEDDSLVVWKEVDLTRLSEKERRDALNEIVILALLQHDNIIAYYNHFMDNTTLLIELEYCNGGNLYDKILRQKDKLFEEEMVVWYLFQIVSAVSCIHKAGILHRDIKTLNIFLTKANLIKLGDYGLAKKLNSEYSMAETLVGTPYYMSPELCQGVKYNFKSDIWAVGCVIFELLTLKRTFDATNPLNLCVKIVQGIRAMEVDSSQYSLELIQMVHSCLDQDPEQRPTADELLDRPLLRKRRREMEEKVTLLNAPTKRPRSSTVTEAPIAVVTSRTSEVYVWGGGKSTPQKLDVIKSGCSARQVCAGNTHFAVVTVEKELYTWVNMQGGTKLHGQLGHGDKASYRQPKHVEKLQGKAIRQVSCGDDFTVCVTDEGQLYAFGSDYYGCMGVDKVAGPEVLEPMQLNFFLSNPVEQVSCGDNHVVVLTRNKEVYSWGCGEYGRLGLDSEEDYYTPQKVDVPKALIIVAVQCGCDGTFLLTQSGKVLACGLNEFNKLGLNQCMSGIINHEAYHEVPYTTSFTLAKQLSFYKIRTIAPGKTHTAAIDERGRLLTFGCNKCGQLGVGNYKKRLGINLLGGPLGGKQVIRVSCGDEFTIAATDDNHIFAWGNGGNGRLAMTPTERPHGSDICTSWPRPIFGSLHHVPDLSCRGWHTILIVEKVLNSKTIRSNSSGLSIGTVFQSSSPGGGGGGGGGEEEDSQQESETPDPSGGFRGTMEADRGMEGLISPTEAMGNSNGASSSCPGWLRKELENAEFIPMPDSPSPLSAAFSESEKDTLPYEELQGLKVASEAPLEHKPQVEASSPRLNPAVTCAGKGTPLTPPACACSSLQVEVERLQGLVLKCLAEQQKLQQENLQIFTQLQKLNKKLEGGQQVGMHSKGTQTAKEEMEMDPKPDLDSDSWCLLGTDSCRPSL

Histone-lysine N-methyltransferase, H3 lysine-36 specific (Homo sapiens), sequence (Q96L73 whole entry, canonical isoform): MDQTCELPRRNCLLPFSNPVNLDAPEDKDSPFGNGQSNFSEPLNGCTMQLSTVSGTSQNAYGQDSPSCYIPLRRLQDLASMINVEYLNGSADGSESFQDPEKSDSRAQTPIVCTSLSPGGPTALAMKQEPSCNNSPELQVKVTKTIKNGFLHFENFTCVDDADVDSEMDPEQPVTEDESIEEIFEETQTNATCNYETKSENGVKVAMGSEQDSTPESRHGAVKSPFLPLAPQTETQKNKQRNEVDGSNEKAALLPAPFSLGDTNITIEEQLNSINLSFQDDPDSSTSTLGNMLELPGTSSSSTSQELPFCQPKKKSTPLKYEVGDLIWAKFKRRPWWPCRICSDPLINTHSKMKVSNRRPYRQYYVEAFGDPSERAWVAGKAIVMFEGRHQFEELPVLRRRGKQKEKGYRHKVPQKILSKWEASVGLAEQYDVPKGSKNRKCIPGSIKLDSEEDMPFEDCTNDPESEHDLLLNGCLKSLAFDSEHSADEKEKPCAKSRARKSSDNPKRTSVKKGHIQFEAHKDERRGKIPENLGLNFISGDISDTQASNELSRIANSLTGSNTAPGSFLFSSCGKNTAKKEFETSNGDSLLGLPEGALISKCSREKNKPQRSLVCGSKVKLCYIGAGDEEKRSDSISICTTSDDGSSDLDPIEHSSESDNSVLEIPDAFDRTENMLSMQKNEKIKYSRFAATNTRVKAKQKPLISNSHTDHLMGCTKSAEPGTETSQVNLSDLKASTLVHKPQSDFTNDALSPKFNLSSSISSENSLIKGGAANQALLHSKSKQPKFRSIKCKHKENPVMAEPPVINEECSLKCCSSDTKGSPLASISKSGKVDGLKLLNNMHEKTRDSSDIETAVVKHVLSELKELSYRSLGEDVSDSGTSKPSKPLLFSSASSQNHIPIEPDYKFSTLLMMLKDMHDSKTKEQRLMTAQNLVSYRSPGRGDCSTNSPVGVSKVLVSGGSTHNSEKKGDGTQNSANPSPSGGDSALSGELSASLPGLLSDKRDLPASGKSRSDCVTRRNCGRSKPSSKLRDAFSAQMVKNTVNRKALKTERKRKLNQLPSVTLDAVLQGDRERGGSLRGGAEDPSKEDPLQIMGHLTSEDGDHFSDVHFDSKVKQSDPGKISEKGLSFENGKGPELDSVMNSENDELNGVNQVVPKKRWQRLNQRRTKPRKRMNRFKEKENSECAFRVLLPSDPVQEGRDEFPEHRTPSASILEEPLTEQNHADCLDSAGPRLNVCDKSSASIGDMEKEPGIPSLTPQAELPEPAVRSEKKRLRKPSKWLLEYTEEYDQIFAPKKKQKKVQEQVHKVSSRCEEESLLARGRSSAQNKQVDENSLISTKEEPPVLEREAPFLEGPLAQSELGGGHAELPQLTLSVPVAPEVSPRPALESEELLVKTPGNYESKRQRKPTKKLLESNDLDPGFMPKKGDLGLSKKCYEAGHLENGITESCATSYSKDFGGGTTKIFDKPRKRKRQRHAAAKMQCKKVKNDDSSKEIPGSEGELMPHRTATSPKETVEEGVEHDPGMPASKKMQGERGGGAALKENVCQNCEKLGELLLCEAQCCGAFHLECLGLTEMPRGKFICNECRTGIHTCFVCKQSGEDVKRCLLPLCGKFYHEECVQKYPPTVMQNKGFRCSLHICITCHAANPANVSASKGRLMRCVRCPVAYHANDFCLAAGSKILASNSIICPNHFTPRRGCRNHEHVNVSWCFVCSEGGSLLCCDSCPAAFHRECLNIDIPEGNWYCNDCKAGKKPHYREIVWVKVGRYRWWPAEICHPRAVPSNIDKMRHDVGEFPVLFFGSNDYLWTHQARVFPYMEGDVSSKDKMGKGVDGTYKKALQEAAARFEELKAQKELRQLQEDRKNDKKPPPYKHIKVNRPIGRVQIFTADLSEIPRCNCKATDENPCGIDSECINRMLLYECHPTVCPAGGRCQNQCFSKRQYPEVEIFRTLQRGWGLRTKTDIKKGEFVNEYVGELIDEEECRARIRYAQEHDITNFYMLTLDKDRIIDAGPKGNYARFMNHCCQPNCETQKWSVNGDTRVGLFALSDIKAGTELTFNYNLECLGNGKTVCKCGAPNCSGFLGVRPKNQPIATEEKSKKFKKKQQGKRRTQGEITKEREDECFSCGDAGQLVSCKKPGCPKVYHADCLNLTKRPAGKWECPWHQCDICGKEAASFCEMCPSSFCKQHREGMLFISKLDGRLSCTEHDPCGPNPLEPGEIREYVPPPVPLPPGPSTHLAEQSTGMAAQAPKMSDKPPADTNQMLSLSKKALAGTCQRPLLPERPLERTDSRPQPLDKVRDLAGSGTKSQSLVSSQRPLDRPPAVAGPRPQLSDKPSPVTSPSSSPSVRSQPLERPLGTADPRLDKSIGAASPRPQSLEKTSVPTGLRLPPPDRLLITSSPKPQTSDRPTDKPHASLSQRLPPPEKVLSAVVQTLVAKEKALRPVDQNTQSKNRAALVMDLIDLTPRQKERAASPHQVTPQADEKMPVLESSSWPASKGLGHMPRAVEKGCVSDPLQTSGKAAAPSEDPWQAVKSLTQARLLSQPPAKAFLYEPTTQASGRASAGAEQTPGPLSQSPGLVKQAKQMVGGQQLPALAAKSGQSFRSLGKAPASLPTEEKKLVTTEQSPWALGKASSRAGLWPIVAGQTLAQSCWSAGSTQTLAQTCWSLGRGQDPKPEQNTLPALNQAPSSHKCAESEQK
Phosphatidylinositol 4,5-bisphosphate 3-kinase catalytic subunit alpha isoform (Homo sapiens), P42336 [E545A], sequence (P42336 whole entry E545A, canonical isoform): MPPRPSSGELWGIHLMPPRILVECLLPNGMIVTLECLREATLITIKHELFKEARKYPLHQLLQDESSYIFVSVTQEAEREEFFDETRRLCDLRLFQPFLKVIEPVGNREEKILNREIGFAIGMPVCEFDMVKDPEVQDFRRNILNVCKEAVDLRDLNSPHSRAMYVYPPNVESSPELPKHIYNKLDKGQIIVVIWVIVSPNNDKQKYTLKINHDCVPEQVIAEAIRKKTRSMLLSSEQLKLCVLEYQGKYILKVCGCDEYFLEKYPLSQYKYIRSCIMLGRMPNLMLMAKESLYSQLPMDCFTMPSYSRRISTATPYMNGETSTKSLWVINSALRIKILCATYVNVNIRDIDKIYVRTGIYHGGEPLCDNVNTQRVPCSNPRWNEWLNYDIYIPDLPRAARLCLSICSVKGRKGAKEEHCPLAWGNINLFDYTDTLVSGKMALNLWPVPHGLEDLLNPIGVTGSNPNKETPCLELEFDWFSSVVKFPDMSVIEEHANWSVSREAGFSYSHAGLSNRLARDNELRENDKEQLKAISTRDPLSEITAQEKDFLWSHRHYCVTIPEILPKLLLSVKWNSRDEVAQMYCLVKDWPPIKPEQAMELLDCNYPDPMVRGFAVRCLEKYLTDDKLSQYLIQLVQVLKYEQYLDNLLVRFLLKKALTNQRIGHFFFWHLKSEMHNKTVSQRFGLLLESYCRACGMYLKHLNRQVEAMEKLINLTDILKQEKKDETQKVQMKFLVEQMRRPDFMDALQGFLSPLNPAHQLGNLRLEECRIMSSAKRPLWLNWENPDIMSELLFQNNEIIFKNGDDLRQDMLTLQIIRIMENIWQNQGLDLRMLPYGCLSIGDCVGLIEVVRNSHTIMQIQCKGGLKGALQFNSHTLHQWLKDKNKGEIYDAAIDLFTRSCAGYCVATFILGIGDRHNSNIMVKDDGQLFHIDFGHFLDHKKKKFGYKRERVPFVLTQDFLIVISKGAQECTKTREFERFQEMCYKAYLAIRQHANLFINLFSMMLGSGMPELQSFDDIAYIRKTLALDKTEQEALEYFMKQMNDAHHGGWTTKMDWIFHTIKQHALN
Serine/threonine-protein kinase Chk2 (Homo sapiens), sequence (O96017 whole entry): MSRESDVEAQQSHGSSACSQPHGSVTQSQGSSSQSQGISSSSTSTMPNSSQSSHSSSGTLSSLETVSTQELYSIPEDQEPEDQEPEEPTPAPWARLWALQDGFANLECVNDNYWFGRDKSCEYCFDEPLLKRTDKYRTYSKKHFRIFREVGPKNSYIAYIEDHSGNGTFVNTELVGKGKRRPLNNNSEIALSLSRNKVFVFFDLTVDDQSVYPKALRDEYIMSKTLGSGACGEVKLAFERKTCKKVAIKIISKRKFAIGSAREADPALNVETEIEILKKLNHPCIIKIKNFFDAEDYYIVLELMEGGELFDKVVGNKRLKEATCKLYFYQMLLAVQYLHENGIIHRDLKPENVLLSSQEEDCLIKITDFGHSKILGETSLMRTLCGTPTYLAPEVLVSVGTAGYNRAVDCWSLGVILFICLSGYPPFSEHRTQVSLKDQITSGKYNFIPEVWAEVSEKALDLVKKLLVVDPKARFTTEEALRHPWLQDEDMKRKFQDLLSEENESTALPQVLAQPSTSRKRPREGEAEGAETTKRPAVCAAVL

% of activity ([1]; at 1 µM): 98% | % of activity ([1]; at 10 µM): 101%
SMILES: Cc1cc(C)cc([C@H]2c3cc(C)ccc3NC(=O)CN2C(=O)c2ccc(Br)s2)c1

% of inhibition [2]: 65.9%
SMILES: CC[C@@H]1[C@H](F)C(=O)N[C@@H]1COc1nccc2cc(C(N)=O)c(OC)cc12 [ZIMLOVISERTIB]

SMILES: Cc1cc(C)cc([C@@H]2c3cc(C)ccc3NC(=O)CN2C(=O)c2ccc(Br)s2)c1
% of activity [3]: 105%

SMILES: COCC(=O)NC/C=C/c1ccc2ncnc(Nc3ccc(Oc4ccc(C)nc4)c(C)c3)c2c1 [CP-724714]
% of control [4]: 33% | % of control [5]: 82%
